Assay results published in PubChem BioAssay AID2060338 (Molecular Pharmacology Branch, DTP, NCI, 2025).
Values joined by “and” are separate entries in the source; they are usually repeats but may differ in a detail not shown here. Equal entries are not always repeated.

System: 556581-035-R-J1-PDC spheroids with HUVEC/MSC, viability
Assay: Anticancer human tumor 556581-035-R-J1-PDC patient-derived ovarian carcinoma cell line growth inhibition [IpAb]
Conditions: for viability, T/C: stronger effect = lower value
Description: Combinatorial screen of targeted agents with ipatasertib and abemaciclib in multi-cell type tumor spheroids
A high-throughput screen of multi-cell type tumor spheroids was designed to identify active combinations of targeted small molecules and ipatasertib or abemaciclib. Complex spheroids include a stromal component modeled by human endothelial cells (HUVEC) and fibroblasts modeled by human mesenchymal stem cells (MSCs). The concentration ranges selected for each drug and investigational agent were based upon clinically achievable concentrations if the clinical Cmax of the agent was known.
Compounds. The drugs and investigational agents: ipatasertib (NSC767898), abemaciclib(NSC768073), selumetinib (NSC741078), trametinib (758246), adavosertib (NSC754352), everolimus (NSC733504), sapanisertib (NSC764658), vemurafenib (NSC761431), venetoclax (NSC766270), copanlisib (NSC809693), apelisib (NSC765974), palbociblib (NSC758247), vemurafenib (NSC761431), dabrafenib (NSC764134), ravoxertinib (NSC781343), BMS-387032 (NSC767048), sotorasib (NSC818433), talazoparib (NSC767125) and afursertib (NSC778305), were obtained from the National Cancer Institute (NCI) Developmental Therapeutics Program Chemical Repository. The FDA-approved anticancer drug set is available from the NCI Developmental Therapeutics Program. […] The stock solutions were prepared in dimethyl sulfoxide (DMSO, Sigma-Aldrich, St. Louis, MO, cat. D2650) at 800-fold the tested concentration and stored at -70 degrees C prior to their use. All drugs and investigational agents were tested over a range starting from a high concentration at or near the clinical Cmax and decreasing in half-log increments. If the clinical Cmax for an agent had not been determined, the highest concentration tested was 10 microM.
NCI60 Cell Culture. NCI60 cell lines were obtained from the NCI Developmental Therapeutics Program Tumor Repository. For each lot of cells, the Repository performed Applied Biosystems AmpFLSTR Identifiler testing with PCR amplification to confirm consistency with the published Identifier STR profile for each cell line. Cells were kept in continuous culture for no more than 20 passages. The optimal seeding densities for each of the cell lines at each time point assessed were determined prior to performing the concentration response studies. Briefly, the NCI60 human tumor lines were grown as monolayers in RPMI 1640 medium supplemented with 10% FBS and 2 mmol/L L-glutamine.
An additional 9 lines were from the NCI60 cell line panel including MDA-MB-231 breast carcinoma, MDA-MB-468 breast carcinoma, MCF7 breast carcinoma, Hs578T breast carcinoma, MALME-3M melanoma, SK-MEL-2 melanoma, SK-OV-3 ovarian carcinoma, DU-145 prostate carcinoma, PC-3 prostate carcinoma, all cell lines along with major genetic alterations are listed on Table 2. Pooled donor human umbilical vein endothelial cells (HUVEC, Lonza, cat. CC-2519) and human mesenchymal stem cells (hMSC, Lonza, cat. PT-2501) were purchased from Lonza (Walkersville, MD).
PDMR cell lines were grown in complete medium (DC medium): Dulbecco's modified Eagle's medium (DMEM)/F12 supplemented with 5% fetal bovine serum (FBS), 2 mM L-glutamine, 100 U/mL penicillin and 100 µg/ml streptomycin, 0.4 µg/ml hydrocortisone, 10 ng/ml epidermal growth factor (EGF) recombinant human protein, 24 µg/mL adenine, and 0.1 mg/mL primocin. During culture from frozen stock vials, PDMR cells were cultured in the same medium containing 10 µM Y-27632 (see Table 3). The PDCs were cultured in complete DMEM/F12 media without 10 microM Y-27632 dihydrochloride for at least two passages prior to the screen. The pooled donor HUVEC and hMSC were cultured in endothelial cell growth medium 2 (PromoCell, Heidelberg, Germany, cat. C-22011) and mesenchymal stem cell growth medium 2 (PromoCell, cat. C-28009), respectively. For all experiments, HUVEC and hMSC were used at passages </=5.
[…]
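Note: spheroids exposed to compounds for 7 days before readout.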

CC(=O)c1c(C)c2cnc(Nc3ccc(N4CCNCC4)cn3)nc2n(C2CCCC2)c1=O + CC(C)NCC(C(=O)N1CCN(c2ncnc3c2C(C)CC3O)CC1)c1ccc(Cl)cc1
IC50 (curve of first compound, second compound 0.1 µM): > 300 nM
IC50 (curve of first compound, second compound 0.316 µM): > 300 nM
IC50 (curve of first compound, second compound 1 µM): > 300 nM
IC50 (curve of first compound, second compound 3.16 µM): > 300 nM
IC50 (curve of first compound, second compound 10 µM): < 0.949 nM
viability, T/C (second compound 0.1 µM, first compound 0.000949 µM): 98.2%
viability, T/C (second compound 0.1 µM, first compound 0.003 µM): 115%
viability, T/C (second compound 0.1 µM, first compound 0.00949 µM): 95.5%
viability, T/C (second compound 0.1 µM, first compound 0.03 µM): 96%
viability, T/C (second compound 0.1 µM, first compound 0.0949 µM): 99%
viability, T/C (second compound 0.1 µM, first compound 0.3 µM): 87.2%
viability, T/C (second compound 0.316 µM, first compound 0.000949 µM): 77.8%
viability, T/C (second compound 0.316 µM, first compound 0.003 µM): 90.4%
viability, T/C (second compound 0.316 µM, first compound 0.00949 µM): 85.9%
viability, T/C (second compound 0.316 µM, first compound 0.03 µM): 76%
viability, T/C (second compound 0.316 µM, first compound 0.0949 µM): 85.3%
viability, T/C (second compound 0.316 µM, first compound 0.3 µM): 82.4%
viability, T/C (second compound 1 µM, first compound 0.000949 µM): 59.9%
viability, T/C (second compound 1 µM, first compound 0.003 µM): 65.7%
viability, T/C (second compound 1 µM, first compound 0.00949 µM): 68.1%
viability, T/C (second compound 1 µM, first compound 0.03 µM): 56.4%
viability, T/C (second compound 1 µM, first compound 0.0949 µM): 65.3%
viability, T/C (second compound 1 µM, first compound 0.3 µM): 63.5%
viability, T/C (second compound 3.16 µM, first compound 0.000949 µM): 57.8%
viability, T/C (second compound 3.16 µM, first compound 0.003 µM): 61.7%
viability, T/C (second compound 3.16 µM, first compound 0.00949 µM): 49.9%
viability, T/C (second compound 3.16 µM, first compound 0.03 µM): 55.4%
viability, T/C (second compound 3.16 µM, first compound 0.0949 µM): 58.1%
viability, T/C (second compound 3.16 µM, first compound 0.3 µM): 58%
viability, T/C (second compound 10 µM, first compound 0.000949 µM): 47.9%
viability, T/C (second compound 10 µM, first compound 0.003 µM): 47.4%
viability, T/C (second compound 10 µM, first compound 0.00949 µM): 48.6%
viability, T/C (second compound 10 µM, first compound 0.03 µM): 49.6%
viability, T/C (second compound 10 µM, first compound 0.0949 µM): 45.8%
viability, T/C (second compound 10 µM, first compound 0.3 µM): 48.4%

CC(C)(C)c1cnc(CSc2cnc(NC(=O)C3CCNCC3)s2)o1
viability, T/C (compound 0.00949 µM): 104% and 105%
viability, T/C (compound 0.03 µM): 116% and 106%
viability, T/C (compound 0.0949 µM): 62.5% and 81%
viability, T/C (compound 0.3 µM): 2.65% and 4.27%
viability, T/C (compound 0.949 µM): 3.19% and 3.08%
viability, T/C (compound 3 µM): 4.63% and 2.13%
IC50 (curve of compound): 121 nM and 151 nM

Cn1ncc(Cl)c1-c1cc(C(=O)NC(CN)Cc2cccc(F)c2)sc1Cl (centres undefined)
viability, T/C (compound 0.0316 µM): 90.6% and 96.9%
viability, T/C (compound 0.1 µM): 81% and 74.5%
viability, T/C (compound 0.316 µM): 71.5% and 69.2%
viability, T/C (compound 1 µM): 60.2% and 70.8%
viability, T/C (compound 3.16 µM): 52.5% and 47.6%
viability, T/C (compound 10 µM): 0.3% and 0.29%
IC50 (curve of compound): 2320 nM and 2410 nM
